# According to patent US6538137B1 (Teijin Limited, priority 1999, dated 2003):
# Target: human FXa (Homo sapiens, UniProt P00742)
# Assay: Determination of inhibitory activity of activated blood coagulation factor X (FXa)
# Assay type: biochemical
# Conditions: substrate S-2765, Tris buffer pH 8.4, incubation 30 minutes, absorbance A405; read-out: FXa inhibitory activity, 50% inhibitory activity (IC50)
# Protocol: A test substance was dissolved in water or water containing organic solvents (DMSO, ethanol or methanol) at a suitable concentration to provide a specimen. To 70 μl each of the resulting specimens serially diluted with water, were added 90 μl of a 100 mM Tris buffer (pH 8.4), 20 μl of a 50 mM Tris buffer (pH 8.4) containing 50 mU/ml human FXa and 2 mM of a substrate (S-2765 manufactured by Daiichi Pure Chemicals Co., Ltd.). Incubation was carried out for 30 minutes. To the incubated mixture, was then added 50 μl of a 50% acetic acid. The absorbance (A405) was determined. A mixture prepared by adding the Tris buffer instead of the FXa was used as a blank, and a mixture containing water instead of the specimen was used as a control. The 50% inhibitory activity (IC50) was determined as the indication of FXa inhibitory activity.
# human FXa, sequence (P00742 235-488 limits assumed): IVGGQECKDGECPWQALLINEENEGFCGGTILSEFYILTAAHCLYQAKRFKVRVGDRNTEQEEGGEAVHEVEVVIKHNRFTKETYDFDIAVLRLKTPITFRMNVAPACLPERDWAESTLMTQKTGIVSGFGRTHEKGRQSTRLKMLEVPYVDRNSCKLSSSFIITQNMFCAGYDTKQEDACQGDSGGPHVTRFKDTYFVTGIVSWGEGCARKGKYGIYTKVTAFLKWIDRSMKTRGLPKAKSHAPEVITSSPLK
# human FXa, sequence (P00742 41-179 partner limits assumed): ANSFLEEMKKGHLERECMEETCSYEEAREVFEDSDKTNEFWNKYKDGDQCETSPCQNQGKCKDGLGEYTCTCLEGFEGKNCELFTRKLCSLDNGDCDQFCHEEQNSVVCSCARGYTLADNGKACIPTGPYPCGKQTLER
row,IC50 [nM],Structure (SMILES)
1,10 to 100,"COC(=O)c1cc(CNCC2CCN(C(C)=N)CC2)cc(-c2cccc(C(=N)N)c2)c1 [Reference Example 6, methyl 3-(3-amidinophenyl)-5-[(((N-acetimidoylpiperidin-4-yl)methyl)amino)methyl]benzoate]"
2,100 to 1000,"COC(=O)c1cc(COCC2CCN(C(C)C)CC2)cc(-c2cccc(C(=N)N)c2)c1 [Reference Example 4, methyl 3-(3-amidinophenyl)-5-[(N-isopropyl-4-piperidinyl)methoxymethyl]-5-benzoate]"
3,100 to 1000,"COC(=O)c1cc(COCC2CCN(C(C)=O)CC2)cc(-c2cccc(C(=N)N)c2)c1 [Reference Example 5, methyl 3-(3-amidinophenyl)-5-[(N-acetylpiperidin-4-yl)methoxymethyl]-5-benzoate]"
4,100 to 1000,"COC(=O)c1cc(COCC2CCNCC2)cc(-c2cccc(C(=N)N)c2)c1 [Reference Example 3, methyl 3-(3-amidinophenyl)-5-[(4-piperidinyl)methoxymethyl]-5-benzoate]"
5,100 to 1000,CC(C)N1CCC(COCc2cc(C(=O)O)cc(-c3cccc(C(=N)N)c3)c2)CC1
6,10 to 100,"COC(=O)c1cc(COCC2CCN(C(C)=N)CC2)cc(-c2cccc(C(=N)N)c2)c1 [Reference Example 7, methyl 3-(3-amidinophenyl)-5-[(1-acetimidoyl-4-piperidinyl)methoxymethyl]benzoate]"
